Measurements from patent US20240345090A1, “EARLY DETECTION OF INNATE IMMUNE DYSFUNCTION AND TREATMENT OF CONDITIONS ASSOCIATED THEREWITH” (UNIVERSITY OF FLORIDA RESEARCH FOUNDATION, INCORPORATED, priority 2021, published 2024).
Entries after “also recorded” stand apart in the source; their conditions may differ.

Columns and labels:
CD14+ monocytes [1] = experiment: Flow cytometry count of TH+ monocytes after in vitro treatment; assay type: cell-based, human; details: 4 hours, TNFα 17 ng/ml; for number of TH+ monocytes, fold change relative to vehicle: healthy donor monocytes, 2 million per well, TPA 100 ng/ml, IL6 17 ng/ml, XPro1595 50 ng/ml, n=3 per group
Method: Monocytes were isolated from total PBMCs prepared as described above^51 using negative selection (Biolegend, 480048) per manufacturer's instructions. Total PBMCs were Fc-blocked to reduce nonspecific binding, followed by incubations with biotin-conjugated antibody cocktail containing antibodies against all subsets except CD14 (negative selection), followed by incubation with magnetic-Avidin beads, allowing all subsets other than CD14+ monocytes to be bound to the magnet. Monocyte purity/enrichment was routinely verified to confirm that the final cell population was greater than 95% pure CD14+ cells (FIG. S2). CD14+ monocytes were collected from the supernatant fraction, washed, counted and density adjusted such that 2 million CD14+ monocytes were seeded per well (FIG. 5A) and treated for 4 hours with vehicle, TPA (100 ng/ml, Biolegend, 755802)^7, TNFα (17 ng/mL, Biolegend, 570102)^61, XPro1595 (50 ng/ml), or IL6 (17 ng/mL) in an ultra-low-adherence 6-well plate (Corning, 3471) to prevent adherence. Suspended cells from each treatment group were aspirated and placed in a 15 ml conical tube, with any remaining adherent cells detached by incubation with 700 uL Accumax solution for 3 minutes (Innovative Cell Technologies, AM105) and added to suspended cells. After pelleting cells by centrifugation (3 minutes×100 g, room temperature), cells were assayed by either flow cytometry^51 or lysed for ELISA as stated above (“Preparation of cell lysates”).
As previously published^51, cells for flow cytometry were fixed and permeabilized (eBioscience, 88-8824-00), and stained for intracellular marker TH (Millipore-Sigma, AB152, 1:100) followed by a species-specific secondary (anti-Rabbit BV421, BD, 565014). After resuspending the sample in a final volume of 250 uL PBS, 5 uL of Invitrogen CountBright Absolute Counting Beads (5000 beads/mL, Invitrogen, C36950) were added just prior to data acquisition (Sony Spectral Analyzer, SP6800). […]

[2] = system: TH protein in human monocytes; experiment: TH Bio-ELISA on lysates of treated monocytes; assay type: cell-based; details: healthy donor monocytes, 4 hours; TNFα 17 ng/ml, IL6 17 ng/ml, XPro1595 50 ng/ml
Method: Adherent cells in culture were lifted using 0.02% EDTA in PBS, diluted with 5 volumes of PBS, and centrifuged at 100×g. Non-adherent cells (PC12) were centrifuged at 100×g for 5 minutes at room temperature, and cell pellets were washed 3 times with 5 volumes of sterile PBS. Primary macrophages and primary murine neuron cultures were washed thrice with ice-cold PBS, on ice. Cell pellets and adherent primary cells were then lysed in ice-cold lysis buffer (10 mM NaCl, 10% glycerol (v/v), 1 mM EDTA, 1 mM EGTA, and HEPES 20 mM, pH 7.6), with Triton X-100 added to a final concentration of 1%, containing 1× protease inhibitor cocktail (Millipore-Sigma, 539131) for one hour at 4° C. with rotation. Resulting lysate was centrifuged at 12,000×g for 15 minutes at 4° C. Supernatant was set aside for protein quantification by Lowry assay (Biorad, 5000112) and the remainder was stored at −80° C. until use for downstream assays.
Antibodies used for ELISA are described in Table 4. […]
Duplicate standard and sample wells were averaged, and background-subtracted based on blank wells. The concentration of TH for each experimental group was calculated using a quadratic curve equation calculated in Graphpad Prism 8, then normalized to total protein concentration per sample as calculated using the Lowry assay. […]

CD14+ monocytes [3] = experiment: Intracellular flow cytometry for Ki67 (cell proliferation); assay type: cell-based, human; details: TNFα treated monocytes
Method: To control for donor variability, identical quantities of counting beads were added as a reference. The number of TH+ monocytes was quantified by flow cytometry (FIG. 6B, left) in two experimental groups: TPA-treated and TNFα-treated. Monocytes in each condition were gated to isolate single cells expressing TH (FIG. 6B). […] A possible mechanism for this observation is either monocyte proliferation during the treatment period or an altered monocyte phenotype in response to TNFα, with no change in total number of monocytes. In other words, following TNFα treatment, TH+ monocytes may either be increasing in number (proliferation) or existing monocytes upregulate TH expression and become TH+ (phenotypic change). While a four-hour exposure to TNFα is an insufficient time period to induce proliferative events in immune cells^74, these possibilities could not be confidently ruled out without additional analyses. Therefore, monocyte proliferation was quantified by comparing the total number of monocytes per microliter of untreated vs. TNFα treated experimental group. […] A more rigorous approach was conducted to assess Ki67 expression as a measure of cell proliferation^87. […] While this finding explains our earlier observation of increased numbers of TH+ cells, the potential phenotypic shift following TNFα mediated immune stimulation was an unpredicted and novel finding.

monocytes = experiment: Monocyte viability at different TNFα treatment durations; assay type: cell-based, human
Method: There is strong evidence in the literature for increased TNFα in PD^27,34-36 including in the brain, cerebrospinal fluid, and serum of Parkinson's patients^27 as well as in Parkinsonian mice^37,38. […] Therefore, the hypothesis that ex vivo stimulation of monocytes from healthy subjects with TNFα stimulates TH expression was tested, as measured by changes in the number of TH-expressing monocytes, and/or the amount of TH per monocyte. Flow cytometry was employed to address the former, and bio-ELISA to address the latter. Two million monocytes isolated from whole blood of healthy donors were treated for 4 hours with tissue plasminogen activator (TPA, 100 ng/ml, positive control for increased monocyte TH expression^7), TNFα (17 ng/mL)^61 and compared with monocytes treated with vehicle (FIG. 6A). Monocytes were assayed for TH expression by two complementary methods: flow cytometry^51 (FIG. 6B-F) and ELISA (FIG. 6G-H). It is noted that because a prolonged TNFα exposure can induce cell toxicity^82-86, multiple treatment durations were tested. […] Therefore, a 4-hour treatment strategy was selected in this study.

## IL6: interleukin-6 (IL6), a cytokine with pleiotropic effects
CD14+ monocytes [1]
  number of TH+ monocytes, fold change relative to vehicle: no significant change in the number of TH+ monocytes
[2]
  TH concentration (picogram per milligram total protein) relative to vehicle: Neither IL6 nor IL6+XPro1595 significantly increased TH quantity

## TNFα
CD14+ monocytes [1]
  total number of monocytes per microliter, untreated vs. treated: unchanged
  number of TH+ monocytes, fold change relative to vehicle: significant increases in TH-expressing monocytes relative to vehicle
[2]
  TH concentration (picogram per milligram total protein) relative to vehicle: significantly increased the amount of TH protein; also recorded: significantly increases
CD14+ monocytes [3]
  Ki67 expression relative to vehicle-treated controls: no change in Ki67 expression
monocytes; 4-hour TNFα (17 ng/ml) treatment
  cell viability: minimal effect on cell viability
monocytes; longer TNFα exposure (more than 4 hours)
  cell viability: substantially decreased cell viability
